Source: article PMC10866072, “Design, synthesis, molecular modelling and biological evaluation of novel 6-amino-5-cyano-2-thiopyrimidine derivatives as potent anticancer agents against leukemia and apoptotic inducers” (Journal of Enzyme Inhibition and Medicinal Chemistry, 2024)

Experiments:
HOP-62 = assay type: cell-based; settings: Homo sapiens, one dose 10^-5 M, 48 h
MDA-MB-435 = assay type: cell-based; settings: Homo sapiens, one dose 10^-5 M, 48 h, read-out: % growth
NCI-H522 = assay type: cell-based; settings: Homo sapiens, one dose 10^-5 M, 48 h
T-47D = assay type: cell-based; settings: Homo sapiens, T47D, one dose 10^-5 M, 48 h, read-out: % growth
MCF7 = assay type: cell-based; settings: Homo sapiens, one dose 10^-5 M, 48 h, read-out: % growth
PC-3 = assay type: cell-based; settings: Homo sapiens, one dose 10^-5 M, 48 h
CAKI-1 = assay type: cell-based; settings: Homo sapiens, CAKI-1, 48 h, one dose 10^-5 M, 48 h
786-0 = assay type: cell-based; settings: Homo sapiens, one dose 10^-5 M, 48 h
TK-10 = assay type: cell-based; settings: Homo sapiens, one dose 10^-5 M, 48 h
RPMI-8226 = assay type: cell-based; settings: Homo sapiens, one dose 10^-5 M, 48 h
[1] = tested on: full NCI 60 cell lines panel; settings: Homo sapiens, 60 cell, 48 h, read-out: Mean % growth
SR = assay type: cell-based; settings: Homo sapiens, one dose 10^-5 M, 48 h
NCI-H23 = assay type: cell-based; settings: Homo sapiens, one dose 10^-5 M, 48 h, read-out: % growth
HCC-2998 = assay type: cell-based; settings: Homo sapiens, one dose 10^-5 M, 48 h
UACC-62 = assay type: cell-based; settings: Homo sapiens, one dose 10^-5 M, 48 h
EKVX = assay type: cell-based; settings: Homo sapiens, one dose 10^-5 M, 48 h
HS 578T = assay type: cell-based; settings: Homo sapiens; one dose 10^-5 M, 48 h; HS 578T; read-out: % growth
CCRF-CEM = assay type: cell-based; settings: Homo sapiens, one dose 10^-5 M, 48 h
LOX IMVI = assay type: cell-based; settings: Homo sapiens, one dose 10^-5 M, 48 h, read-out: % growth
SK-MEL-5 = assay type: cell-based; settings: Homo sapiens, one dose 10^-5 M, 48 h, read-out: % growth
SF-539 = assay type: cell-based; settings: Homo sapiens, one dose 10^-5 M, 48 h
MOLT-4 = assay type: cell-based; settings: Homo sapiens, one dose 10^-5 M, 48 h, read-out: % growth
SK-OV-3 = assay type: cell-based; settings: Homo sapiens, one dose 10^-5 M, 48 h
SK-MEL-28 = assay type: cell-based; settings: Homo sapiens, one dose 10^-5 M, 48 h
OVCAR-3 = assay type: cell-based; settings: Homo sapiens, one dose 10^-5 M, 48 h
SK-MEL-2 = assay type: cell-based; settings: Homo sapiens, one dose 10^-5 M, 48 h
ACHN = assay type: cell-based; settings: Homo sapiens, one dose 10^-5 M, 48 h
UACC-257 = assay type: cell-based; settings: Homo sapiens, one dose 10^-5 M, 48 h
HCT-15 = assay type: cell-based; settings: Homo sapiens, one dose 10^-5 M, 48 h, read-out: % growth
HOP-92 = assay type: cell-based; settings: Homo sapiens, one dose 10^-5 M, 48 h
A549/ATCC = assay type: cell-based; settings: Homo sapiens, one dose 10^-5 M, 48 h
SW-620 = assay type: cell-based; settings: Homo sapiens, one dose 10^-5 M, 48 h
HT29 = assay type: cell-based; settings: Homo sapiens, HT-29, one dose 10^-5 M, 48 h
DU-145 = assay type: cell-based; settings: Homo sapiens, one dose 10^-5 M, 48 h
SF-295 = assay type: cell-based; settings: Homo sapiens, one dose 10^-5 M, 48 h
RXF 393 = assay type: cell-based; settings: Homo sapiens, RXF 393, 48 h, one dose 10^-5 M, 48 h, read-out: % growth
UO-31 = assay type: cell-based; settings: Homo sapiens, UO-31, 48 h, one dose 10^-5 M, 48 h
U251 = assay type: cell-based; settings: Homo sapiens, U-251, one dose 10^-5 M, 48 h
OVCAR-5 = assay type: cell-based; settings: Homo sapiens, one dose 10^-5 M, 48 h
HL-60(TB) = assay type: cell-based; settings: Homo sapiens, one dose 10^-5 M, 48 h
SN12C = assay type: cell-based, human; settings: Homo sapiens, one dose 10^-5 M, 48 h
OVCAR-8 = assay type: cell-based; settings: Homo sapiens, one dose 10^-5 M, 48 h
MDA-MB-468 = assay type: cell-based; settings: Homo sapiens, one dose 10^-5 M, 48 h
KM12 = assay type: cell-based; settings: Homo sapiens, one dose 10^-5 M, 48 h
MALME-3M = assay type: cell-based; settings: Homo sapiens, one dose 10^-5 M, 48 h
SNB-19 = assay type: cell-based; settings: Homo sapiens, one dose 10^-5 M, 48 h, read-out: % growth
SF-268 = assay type: cell-based; settings: Homo sapiens, one dose 10^-5 M, 48 h, read-out: % growth
HCT-116 = assay type: cell-based; settings: Homo sapiens, one dose 10^-5 M, 48 h, read-out: % growth
K-562 = assay type: cell-based; settings: Homo sapiens, K562, one dose 10^-5 M, 48 h
A498 = assay type: cell-based; settings: Homo sapiens, one dose 10^-5 M, 48 h
SNB-75 = assay type: cell-based; settings: Homo sapiens, one dose 10^-5 M, 48 h
NCI-H460 = assay type: cell-based; settings: Homo sapiens, one dose 10^-5 M, 48 h, read-out: % growth
M14 = assay type: cell-based; settings: Homo sapiens, one dose 10^-5 M, 48 h
MDA-MB-231/ATCC = assay type: cell-based; settings: one dose 10^-5 M, 48 h; for % growth at 10 µM: Homo sapiens
IGROV1 = assay type: cell-based; settings: Homo sapiens, IGROV-1, one dose 10^-5 M, 48 h, read-out: % growth
OVCAR-4 = assay type: cell-based; settings: Homo sapiens, one dose 10^-5 M, 48 h
NCI-H226 = assay type: cell-based; settings: Homo sapiens, one dose 10^-5 M, 48 h

N=C(NN=Cc1ccc(Br)cc1)c1c(N)nc(S)nc1-c1ccc(Cl)cc1 [Compound 4k, 4-amino-N'-[(4-bromophenyl)methylene]-6–(4-chlorophenyl)-2-mercapto pyrimidine-5-carboximidohydrazide]
% growth at 10 µM (HOP-62): 98% | activity at 10 µM (MDA-MB-435): 87.8% | % growth at 10 µM (NCI-H522): 73.5% | activity at 10 µM (T-47D): 54.8% | activity at 10 µM (MCF7): 57.5% | percent cell growth at 10 µM (PC-3): 70.5% | % growth at 10 µM (CAKI-1): 62.4% | % growth at 10 µM (786-0): 89.9% | % cell growth at 10 µM (TK-10): 116% | % growth at 10 µM (RPMI-8226): 56.8% | activity at 10 µM [1]: 76.8% | percent cell growth at 10 µM (SR): 62.4% | activity at 10 µM (NCI-H23): 71.8% | % growth at 10 µM (HCC-2998): 111% | % growth at 10 µM (UACC-62): 82.4% | % cell growth at 10 µM (EKVX): 66.3% | activity at 10 µM (HS 578T): 42.6% | % cell growth at 10 µM (CCRF-CEM): 43.4% | activity at 10 µM (LOX IMVI): 92.3% | activity at 10 µM (SK-MEL-5): 93.3% | % growth at 10 µM (SF-539): 71.2% | activity at 10 µM (MOLT-4): 54.6% | % growth at 10 µM (SK-OV-3): 78.7% | % cell growth at 10 µM (SK-MEL-28): 105% | % growth at 10 µM (OVCAR-3): 101% | % growth at 10 µM (SK-MEL-2): 96% | % growth at 10 µM (ACHN): 77.3% | percent cell growth at 10 µM (UACC-257): 81.4% | activity at 10 µM (HCT-15): 73.4% | % growth at 10 µM (HOP-92): 19% | % growth at 10 µM (A549/ATCC): 55.3% | % growth at 10 µM (SW-620): 95.6% | % growth at 10 µM (HT29): 102% | % growth at 10 µM (DU-145): 83.9% | % cell growth at 10 µM (SF-295): 91.2% | activity at 10 µM (RXF 393): 82.5% | % cell growth at 10 µM (UO-31): 47.8% | % growth at 10 µM (U251): 77.1% | percent cell growth at 10 µM (OVCAR-5): 97% | % growth at 10 µM (HL-60(TB)): 119% | % growth at 10 µM (SN12C): 87.7% | % growth of cells at 10 µM (OVCAR-8): 63.7% | percent cell growth at 10 µM (MDA-MB-468): 84.6% | % growth at 10 µM (KM12): 76.2% | % growth at 10 µM (MALME-3M): 119% | activity at 10 µM (SNB-19): 80.4% | activity at 10 µM (SF-268): 90.2% | activity at 10 µM (HCT-116): 69.6% | % growth at 10 µM (K-562): 67.8% | % growth at 10 µM (A498): 88.4% | % growth at 10 µM (SNB-75): 35.5% | activity at 10 µM (NCI-H460): 73.4% | % growth at 10 µM (M14): 76.5% | % growth at 10 µM (MDA-MB-231/ATCC): -1.21% | % growth (MDA-MB-231/ATCC): -1.21% | activity at 10 µM (IGROV1): 68.2% | % growth at 10 µM (OVCAR-4): 76.7% | % growth at 10 µM (NCI-H226): 98%

N=C(NN=Cc1ccc(Cl)cc1Cl)c1c(N)nc(S)nc1-c1ccc(Cl)cc1 [Compound 4l, 4-amino-6–(4-chlorophenyl)-N'-[(2,4-dichlorophenyl)methylene]-2-mercapto pyrimidine-5-carboximidohydrazide]
% growth at 10 µM (HOP-62): 53% | activity at 10 µM (MDA-MB-435): 89% | % growth at 10 µM (NCI-H522): 62.3% | activity at 10 µM (T-47D): 28.1% | activity at 10 µM (MCF7): 53.1% | percent cell growth at 10 µM (PC-3): 48% | % growth at 10 µM (CAKI-1): 37% | % growth at 10 µM (786-0): 88.6% | % cell growth at 10 µM (TK-10): 98.8% | % growth at 10 µM (RPMI-8226): 46.5% | activity at 10 µM [1]: 68.3% | percent cell growth at 10 µM (SR): 65.6% | activity at 10 µM (NCI-H23): 78.3% | % growth at 10 µM (HCC-2998): 95% | % growth at 10 µM (UACC-62): 43.1% | % cell growth at 10 µM (EKVX): 59% | activity at 10 µM (HS 578T): 36.4% | % cell growth at 10 µM (CCRF-CEM): 64.6% | activity at 10 µM (LOX IMVI): 69.4% | activity at 10 µM (SK-MEL-5): 81% | % growth at 10 µM (SF-539): 70.3% | activity at 10 µM (MOLT-4): 66.4% | % growth at 10 µM (SK-OV-3): 82.1% | % cell growth at 10 µM (SK-MEL-28): 75.8% | % growth at 10 µM (OVCAR-3): 80.2% | % growth at 10 µM (SK-MEL-2): 83.3% | % growth at 10 µM (ACHN): 53.2% | percent cell growth at 10 µM (UACC-257): 96.5% | activity at 10 µM (HCT-15): 77.4% | % growth at 10 µM (HOP-92): 54.9% | % growth at 10 µM (A549/ATCC): 90.7% | % growth at 10 µM (SW-620): 95.8% | % growth at 10 µM (HT29): 87% | % growth at 10 µM (DU-145): 79.3% | % cell growth at 10 µM (SF-295): 85% | activity at 10 µM (RXF 393): 31.2% | % cell growth at 10 µM (UO-31): 43.2% | % growth at 10 µM (U251): 93.9% | percent cell growth at 10 µM (OVCAR-5): 73.2% | % growth at 10 µM (HL-60(TB)): 101% | % growth at 10 µM (SN12C): 65.5% | % growth of cells at 10 µM (OVCAR-8): 90% | percent cell growth at 10 µM (MDA-MB-468): 88.4% | % growth at 10 µM (KM12): 79.8% | % growth at 10 µM (MALME-3M): 43.4% | activity at 10 µM (SNB-19): 84% | activity at 10 µM (SF-268): 73.6% | activity at 10 µM (HCT-116): 84.2% | % growth at 10 µM (K-562): 77.1% | % growth at 10 µM (A498): 6.77% | % growth at 10 µM (SNB-75): 26.1% | activity at 10 µM (NCI-H460): 66.3% | % growth at 10 µM (M14): 76.2% | % growth at 10 µM (MDA-MB-231/ATCC): 52.7% | activity at 10 µM (IGROV1): 44.9% | % growth at 10 µM (OVCAR-4): 79.2% | % growth at 10 µM (NCI-H226): 62.4%
